# From patent US9220700B2, “Cysteine for physiological injection” (Cornell University, priority 2009, dated 2015)
# Tests used:
# neuromuscular blockade = experiment: Reversibility of neuromuscular blockade effects by administration of thiol compounds; format: in vivo; settings: administration of thiol compounds such as cysteine (L or D) or glutathione
# [1] = system: neuromuscular blockade produced by CW002; experiment: Reversal of CW002 neuromuscular blockade (recovery of muscle twitch) by cysteine in anesthetized beagles; format: in vivo; settings: 0.08 mg/kg CW002, cysteine given 1 minute after CW002
# Protocol: Three anesthetized male beagles received CW002. After 1 minute and complete loss of muscle twitch, D-cysteine was administered at dosages of 10, 20, 50 or 100 mg/kg. Each dose was given as a single experiment separated from other experiments by at least 7 days. The rate and time to complete recovery of muscle twitch in each animal was determined.
# [2] = system: anesthetized male beagles; settings: 100 mg/kg; previous work by the inventors; cited from earlier work
# [3] = system: neuromuscular blockade produced by CW002; settings: previous study (Sunaga et al.); cited from earlier work
# rats = experiment: L-cysteine toxicology in rats; format: in vivo; settings: conscious rats; bolus injections of 750 mg/kg intravenously
# Excerpt: This Example describes toxicology studies performed using FDA guidelines.
# [4] = Natural pH, solubility and precipitation of cysteine solutions (general statements); format: physicochemical
structure (smiles),measurement,setting,value
COc1ccc(CC2c3cc(OC)c(OC)cc3CC[N+]2(C)CCCOC(=O)/C=C/C(=O)OCCC[N+]2(C)CCc3cc(OC)c(OC)cc3C2Cc2ccc(OC)c(OC)c2)cc1OC (centres unmarked) [CW002],Reversibility of neuromuscular blockade effects by thiol compounds,neuromuscular blockade,reversible
COc1ccc(C[C@@H]2c3cc(OC)c(OC)cc3CC[N@@+]2(C)CCCOC(=O)/C=C\C(=O)OCCC[N@+]2(C)CCc3cc(OC)c(OC)cc3[C@H]2Cc2cc(OC)c(OC)c(OC)c2)cc1OC [CW 011],Reversibility of neuromuscular blockade effects by thiol compounds,neuromuscular blockade,reversible
N[C@H](CS)C(=O)O [D-cysteine],Dose range effective for reversal of CW002,[1],30 to 50 mg/kg
N[C@@H](CS)C(=O)O [L-cysteine],Effect on blood pressure (previous work),[2],modest increase in blood pressure
same,Dose range effective for reversal of CW002 (previously described),[3],30 to 50 mg/kg
same,"Clinical, biochemical, or histological evidence of organ toxicity",rats,"No animals exhibited clinical, biochemical, or histological evidence of organ toxicity"
N[C@@H](CS)C(=O)O [cysteine],solubility,"[4]; base form, read-out: Solubility of cysteine in its base form",≤ 50 mg/mL
same,Precipitation of cysteine solutions adjusted with sodium hydroxide,[4]; pH values above 3,rapid cystine precipitation
